Biological target: T1, integrin α4β7 (RPMI8866 human cells adhering to MAdCAM-1) (Homo sapiens, UniProt P13612+P26010)
T1 construct: RMP18866 cells, which express integrin α4β7; host or cells: RPMI8866
T1 sequence (P13612 34-1032): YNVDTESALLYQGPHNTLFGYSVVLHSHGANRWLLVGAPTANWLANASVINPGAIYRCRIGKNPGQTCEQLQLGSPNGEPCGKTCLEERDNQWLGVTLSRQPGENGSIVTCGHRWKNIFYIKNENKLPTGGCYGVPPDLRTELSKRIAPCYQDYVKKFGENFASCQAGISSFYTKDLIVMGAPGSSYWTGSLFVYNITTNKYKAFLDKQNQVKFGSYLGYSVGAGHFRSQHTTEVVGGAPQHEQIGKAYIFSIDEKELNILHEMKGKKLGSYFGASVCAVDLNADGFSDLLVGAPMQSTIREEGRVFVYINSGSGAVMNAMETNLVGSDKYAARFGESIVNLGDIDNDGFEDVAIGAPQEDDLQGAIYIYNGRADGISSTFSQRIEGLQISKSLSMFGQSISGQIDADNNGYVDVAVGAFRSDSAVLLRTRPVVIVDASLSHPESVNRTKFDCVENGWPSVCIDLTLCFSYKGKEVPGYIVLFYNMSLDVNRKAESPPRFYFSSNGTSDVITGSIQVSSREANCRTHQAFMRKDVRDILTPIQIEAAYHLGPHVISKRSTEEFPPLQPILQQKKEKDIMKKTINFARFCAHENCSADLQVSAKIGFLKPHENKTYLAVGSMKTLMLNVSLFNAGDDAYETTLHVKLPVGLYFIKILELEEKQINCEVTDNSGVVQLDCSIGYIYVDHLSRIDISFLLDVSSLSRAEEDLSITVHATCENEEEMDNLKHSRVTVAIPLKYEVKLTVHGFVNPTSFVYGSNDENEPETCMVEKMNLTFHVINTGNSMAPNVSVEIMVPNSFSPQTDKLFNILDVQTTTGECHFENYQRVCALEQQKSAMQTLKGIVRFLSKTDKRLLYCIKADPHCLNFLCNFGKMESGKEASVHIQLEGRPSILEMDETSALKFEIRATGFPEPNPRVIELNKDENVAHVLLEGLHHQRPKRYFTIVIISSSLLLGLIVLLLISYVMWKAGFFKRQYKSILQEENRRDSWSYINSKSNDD
T1 sequence (P26010 20-798): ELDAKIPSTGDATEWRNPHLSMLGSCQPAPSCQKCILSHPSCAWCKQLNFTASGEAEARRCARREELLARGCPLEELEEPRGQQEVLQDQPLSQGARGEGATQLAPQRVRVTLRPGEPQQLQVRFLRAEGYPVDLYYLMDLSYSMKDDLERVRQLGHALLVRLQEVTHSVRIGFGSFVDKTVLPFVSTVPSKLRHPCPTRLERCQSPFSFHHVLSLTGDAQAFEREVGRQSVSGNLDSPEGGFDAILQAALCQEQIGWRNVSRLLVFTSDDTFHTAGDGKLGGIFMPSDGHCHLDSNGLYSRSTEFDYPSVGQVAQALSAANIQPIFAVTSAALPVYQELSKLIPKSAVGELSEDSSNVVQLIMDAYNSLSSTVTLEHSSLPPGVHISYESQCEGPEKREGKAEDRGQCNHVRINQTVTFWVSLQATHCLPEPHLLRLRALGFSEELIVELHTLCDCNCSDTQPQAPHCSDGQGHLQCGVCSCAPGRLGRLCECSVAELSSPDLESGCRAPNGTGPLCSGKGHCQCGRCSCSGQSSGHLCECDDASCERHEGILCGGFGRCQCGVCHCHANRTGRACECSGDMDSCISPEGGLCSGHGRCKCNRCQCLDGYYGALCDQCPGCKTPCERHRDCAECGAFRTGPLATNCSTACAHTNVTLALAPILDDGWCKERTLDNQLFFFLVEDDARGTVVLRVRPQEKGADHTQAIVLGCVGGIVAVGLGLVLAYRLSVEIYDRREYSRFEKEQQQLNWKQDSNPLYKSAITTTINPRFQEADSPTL
Experiment: Integrin α4β7-MAdCAM cell adhesion assay (RPMI8866 cells)
Assay type: cell-based
Settings: RPMI8866 cells adhering to MAdCAM; read-out: RPMI8866 Adhesion α4β7/MAdCAM IC50
Outline: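 Adhesion was read by calcein fluorescence. RPMI8866 cells were labelled at 10 million cells/ml with […] calcein (37° C., 30 min) and washed twice in PBS before reading. Dose-response values were corrected by subtracting cell-free control well fluorescence.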

| Compound | IC50 [nM] |
| --- | --- |
| CC(C)C[C@@H]1NC(=O)c2ccc(-c3ccc(N4CCN(C(=O)c5cc(C(=O)N6CCN(c7ccc(-c8ccc9cc8CNC(=O)[C@@H]8CCCN8[C@H](C(=O)NC(C)(C)C)[C@H](C)NC(=O)[C@H]([C@@H](C)O)NC(=O)[C@H](CC(=O)O)NC(=O)[C@H](CC(C)C)NC9=O)cc7)CC6)cc(C(=O)N6CCN(c7ccc(-c8ccc9cc8CNC(=O)[C@@H]8CCCN8[C@H](C(=O)NC(C)(C)C)[C@H](C)NC(=O)[C@H]([C@@H](C)O)NC(=O)[C@H](CC(=O)O)NC(=O)[C@H](CC(C)C)NC9=O)cc7)CC6)c5)CC4)cc3)c(c2)CNC(=O)[C@@H]2CCCN2[C@H](C(=O)NC(C)(C)C)[C@H](C)NC(=O)[C@H]([C@@H](C)O)NC(=O)[C@H](CC(=O)O)NC1=O [Compound 520] | 6 |
| CC(C)C[C@@H]1NC(=O)c2ccc(-c3ccc(N4CCN(CCC(=O)N5CCN(c6ccc(-c7ccc8cc7CNC(=O)[C@@H]7CCCN7[C@H](C(=O)NC(C)(C)C)[C@H](C)NC(=O)[C@H]([C@@H](C)O)NC(=O)[C@H](CC(=O)O)NC(=O)[C@H](CC(C)C)NC8=O)cc6)CC5)CC4)cc3)c(c2)CNC(=O)[C@@H]2CCCN2[C@H](C(=O)NC(C)(C)C)[C@H](C)NC(=O)[C@H]([C@@H](C)O)NC(=O)[C@H](CC(=O)O)NC1=O [Compound 482] | 26 |
| CC(C)C[C@@H]1NC(=O)c2ccc(-c3ccc(N4CCN(C(=O)CC[C@H](N)C(=O)N5CCN(c6ccc(-c7ccc8cc7CNC(=O)[C@@H]7CCCN7[C@H](C(=O)NC(C)(C)C)[C@H](C)NC(=O)[C@H]([C@@H](C)O)NC(=O)[C@H](CC(=O)O)NC(=O)[C@H](CC(C)C)NC8=O)cc6)CC5)CC4)cc3)c(c2)CNC(=O)[C@@H]2CCCN2[C@H](C(=O)NC(C)(C)C)[C@H](C)NC(=O)[C@H]([C@@H](C)O)NC(=O)[C@H](CC(=O)O)NC1=O [Compound 494] | 50 |
| CC(C)C[C@@H]1NC(=O)c2ccc(-c3ccc(N4CCN(Cc5ccc(CN6CCN(c7ccc(-c8ccc9cc8CNC(=O)[C@@H]8CCCN8[C@H](C(=O)NC(C)(C)C)[C@H](C)NC(=O)[C@H]([C@@H](C)O)NC(=O)[C@H](CC(=O)O)NC(=O)[C@H](CC(C)C)NC9=O)cc7)CC6)cc5)CC4)cc3)c(c2)CNC(=O)[C@@H]2CCCN2[C@H](C(=O)NC(C)(C)C)[C@H](C)NC(=O)[C@H]([C@@H](C)O)NC(=O)[C@H](CC(=O)O)NC1=O [Compound 500] | 32 |
| CC(C)C[C@@H]1NC(=O)C[C@H](CCCCN)N(C)C(=O)[C@H](CCCCNC(=O)c2ccccc2-c2ccccc2C(=O)NCCCC[C@@H]2NC(=O)[C@@H]3CCCN3[C@H](C(=O)NC(C)(C)C)[C@H](C)NC(=O)[C@H]([C@@H](C)O)NC(=O)[C@H](CC(=O)O)NC(=O)[C@H](CC(C)C)NC(=O)C[C@H](CCCCN)N(C)C2=O)NC(=O)[C@@H]2CCCN2[C@H](C(=O)NC(C)(C)C)[C@H](C)NC(=O)[C@H]([C@@H](C)O)NC(=O)[C@H](CC(=O)O)NC1=O [Compound 535] | 15 |
| CC(C)C[C@@H]1NC(=O)c2ccc(-c3ccc(N4CCN(C(=O)CCCCCCCCCCC(=O)N5CCN(c6ccc(-c7ccc8cc7CNC(=O)[C@@H]7CCCN7[C@H](C(=O)NC(C)(C)C)[C@H](C)NC(=O)[C@H]([C@@H](C)O)NC(=O)[C@H](CC(=O)O)NC(=O)[C@H](CC(C)C)NC8=O)cc6)CC5)CC4)cc3)c(c2)CNC(=O)[C@@H]2CCCN2[C@H](C(=O)NC(C)(C)C)[C@H](C)NC(=O)[C@H]([C@@H](C)O)NC(=O)[C@H](CC(=O)O)NC1=O [Compound 392] | 28 |
| CC(C)C[C@@H]1NC(=O)c2ccc(-c3ccc(N4CCN(C(=O)CCC(=O)N5CCN(c6ccc(-c7ccc8cc7CNC(=O)[C@@H]7CCCN7[C@H](C(=O)NC(C)(C)C)[C@H](C)NC(=O)[C@H]([C@@H](C)O)NC(=O)[C@H](CC(=O)O)NC(=O)[C@H](CC(C)C)NC8=O)cc6)CC5)CC4)cc3)c(c2)CNC(=O)[C@@H]2CCCN2[C@H](C(=O)NC(C)(C)C)[C@H](C)NC(=O)[C@H]([C@@H](C)O)NC(=O)[C@H](CC(=O)O)NC1=O [Compound 484] | 14 |
| CC(C)C[C@@H]1NC(=O)C[C@H](CCCCN)N(C)C(=O)[C@H](CCCCNC(=O)CCOCCOCCOCCOCCOCCOCCOCCC(=O)NCCCC[C@@H]2NC(=O)[C@@H]3CCCN3[C@H](C(=O)NC(C)(C)C)[C@H](C)NC(=O)[C@H]([C@@H](C)O)NC(=O)[C@H](CC(=O)O)NC(=O)[C@H](CC(C)C)NC(=O)C[C@H](CCCCN)N(C)C2=O)NC(=O)[C@@H]2CCCN2[C@H](C(=O)NC(C)(C)C)[C@H](C)NC(=O)[C@H]([C@@H](C)O)NC(=O)[C@H](CC(=O)O)NC1=O [Compound 536] | 16 |
| CC(C)C[C@@H]1NC(=O)c2ccc(-c3ccc(N4CCN(CC(=O)N5CCN(c6ccc(-c7ccc8cc7CNC(=O)[C@@H]7CCCN7[C@H](C(=O)NC(C)(C)C)[C@H](C)NC(=O)[C@H]([C@@H](C)O)NC(=O)[C@H](CC(=O)O)NC(=O)[C@H](CC(C)C)NC8=O)cc6)CC5)CC4)cc3)c(c2)CNC(=O)[C@@H]2CCCN2[C@H](C(=O)NC(C)(C)C)[C@H](C)NC(=O)[C@H]([C@@H](C)O)NC(=O)[C@H](CC(=O)O)NC1=O [Compound 481] | 36 |
| CC(C)C[C@@H]1NC(=O)c2ccc(-c3ccc(N4CCN(C(=O)[C@H]5CCC[C@H]5C(=O)N5CCN(c6ccc(-c7ccc8cc7CNC(=O)[C@@H]7CCCN7[C@H](C(=O)NC(C)(C)C)[C@H](C)NC(=O)[C@H]([C@@H](C)O)NC(=O)[C@H](CC(=O)O)NC(=O)[C@H](CC(C)C)NC8=O)cc6)CC5)CC4)cc3)c(c2)CNC(=O)[C@@H]2CCCN2[C@H](C(=O)NC(C)(C)C)[C@H](C)NC(=O)[C@H]([C@@H](C)O)NC(=O)[C@H](CC(=O)O)NC1=O [Compound 458] | 42 |
| CC(C)C[C@@H]1NC(=O)c2ccc(-c3ccc(N4CCN(Cc5cc(CN6CCN(c7ccc(-c8ccc9cc8CNC(=O)[C@@H]8CCCN8[C@H](C(=O)NC(C)(C)C)[C@H](C)NC(=O)[C@H]([C@@H](C)O)NC(=O)[C@H](CC(=O)O)NC(=O)[C@H](CC(C)C)NC9=O)cc7)CC6)cc(CN6CCN(c7ccc(-c8ccc9cc8CNC(=O)[C@@H]8CCCN8[C@H](C(=O)NC(C)(C)C)[C@H](C)NC(=O)[C@H]([C@@H](C)O)NC(=O)[C@H](CC(=O)O)NC(=O)[C@H](CC(C)C)NC9=O)cc7)CC6)c5)CC4)cc3)c(c2)CNC(=O)[C@@H]2CCCN2[C@H](C(=O)NC(C)(C)C)[C@H](C)NC(=O)[C@H]([C@@H](C)O)NC(=O)[C@H](CC(=O)O)NC1=O [Compound 518] | 18 |
| CC(C)C[C@@H]1NC(=O)c2ccc(-c3ccc(N4CCN(Cc5cccc(CN6CCN(c7ccc(-c8ccc9cc8CNC(=O)[C@@H]8CCCN8[C@H](C(=O)NC(C)(C)C)[C@H](C)NC(=O)[C@H]([C@@H](C)O)NC(=O)[C@H](CC(=O)O)NC(=O)[C@H](CC(C)C)NC9=O)cc7)CC6)c5)CC4)cc3)c(c2)CNC(=O)[C@@H]2CCCN2[C@H](C(=O)NC(C)(C)C)[C@H](C)NC(=O)[C@H]([C@@H](C)O)NC(=O)[C@H](CC(=O)O)NC1=O [Compound 499] | 42 |
| CC(C)C[C@@H]1NC(=O)c2ccc(-c3ccc(N4CCN(C(=O)C[C@@H](N)C(=O)N5CCN(c6ccc(-c7ccc8cc7CNC(=O)[C@@H]7CCCN7[C@H](C(=O)NC(C)(C)C)[C@H](C)NC(=O)[C@H]([C@@H](C)O)NC(=O)[C@H](CC(=O)O)NC(=O)[C@H](CC(C)C)NC8=O)cc6)CC5)CC4)cc3)c(c2)CNC(=O)[C@@H]2CCCN2[C@H](C(=O)NC(C)(C)C)[C@H](C)NC(=O)[C@H]([C@@H](C)O)NC(=O)[C@H](CC(=O)O)NC1=O [Compound 493] | 45 |

Source: US11713338B2, “Cyclic peptides multimers targeting α-4-β-7 integrin” (priority 2016, dated 2023)
